Values of other authors as cited in US3972859A, “Novel decapeptide amide analogs of leuteinizing hormone-releasing hormone” (Takeda Chemical Industries, Ltd., priority 1974, dated 1976).

System: LH-RH activity
Conditions: relative to parent LH-RH; literature (Monahan et al 1973)

[D-Ala^6 ]LH-RH
potency, % of the potency of the parent LH-RH: 350-450%
